Results as given in US20240150843A1, “METHODS AND MATERIALS FOR IDENTIFYING MYELOMA STAGE AND DRUG SENSITIVITY AND TREATING MYELOMA” (Mayo Foundation for Medical Education and Research, priority 2021, published 2024).

Experiments:
JJN3 cells = test: MTT assay, PBK inhibitor alone or combined with lenalidomide or bortezomib; format: cell-based, human; settings: JJN3 (IMiD resistant cell line)
Description: (§1) FIGS. 11A and 11B show MM cell growth and drug response after depletion of PRR11 using CRISPR-Cas9 technology or inhibition of PBK in HMCLs. (A) The lentivirus harboring non-targeting control (NS) and two PRR11 CRISPR gRNAs (#1 and #2) expressing cassette were used to infect two MM cell lines (JJN3 and […]). After confirming depletion of PRR11 in HMCLs by western blot (bottom), an MTT assay was performed to evaluate cell proliferation and drug response to lenalidomide or bortezomib in both control virus-transduced cells and cells with PRR11 depletion. Depletion of PRR11 neither changed MM cell proliferation nor affected lenalidomide and bortezomib sensitivity. (B) JJN3 and XG1LenRes, IMiD resistant cell lines, were treated with a PBK specific inhibitor, HI-TOPK-032 alone (Calbiochem) or combined with either lenalidomide (Len) or bortezomib (Bor) to evaluate synergy by the MTT assay. Inhibition of PBK activity using Hi-TOPK-032, enhanced both lenalidomide and bortezomib sensitivity in JJN3 and XG1LenRes cells.
(§2) Analysis of NM cell proliferation and drug response after modulating PRR11 expression and PBK1 activity: PRR11 and PBK1 expression also was associated with survival and drug response in the CoMMpass dataset. Using CRISPR-Cas9 technology, MM cell proliferation and drug response were investigated after depletion of PRR11. Briefly, the lentivirus harboring non-targeting control and two PRR11 CRISPR gRNA expressing cassettes were prepared and used to infect MM cell lines using methods described elsewhere (Ran et al., Nat Protoc 8(11):2281-2308, 2013; and Zhu et al., Cancer Res 77(16):4317-4327, 2017). After confirming depletion of PRR11 in HMCLs by western blot, an MTT assay was performed to evaluate cell proliferation and drug response to lenalidomide or bortezomib in both control virus-transduced cells and cells with PRR11 depletion. For PBK, JJN3 and XG1LenRes (IMiD resistant cell lines) were treated with a PBK specific inhibitor (HI-TOPK-032; Calbiochem; San Diego, CA) either alone or in combination with either lenalidomide or bortezomib to evaluate their effects by MTT assay.

XG1LenRes cells = test: as above; format: cell-based, human; settings: XG1LenRes (IMiD resistant cell line)
Description: as §1, §2

N#Cc1c2nc3ccccc3nc2n2ccc(NC(=O)c3cccs3)cc12 [Hi-TOPK-032]
enhanced: bortezomib sensitivity (JJN3 cells; combined with bortezomib) | lenalidomide sensitivity (JJN3 cells; combined with lenalidomide) | bortezomib sensitivity (XG1LenRes cells; combined with bortezomib) | lenalidomide sensitivity (XG1LenRes cells; combined with lenalidomide)
